Assay results reported in patent US20210038559A1, “CANNABINOIDS AND DERIVATIVES FOR PROMOTING IMMUNOGENICITY OF TUMOR AND INFECTED CELLS” (priority 2018, published 2021).

system: MHC-I expression by COLO 205 cells; assay: cells; type: cell-based, human; details: not given
Description: A panel of synthetic cannabinoids (Cayman Chemical, #9002891) was tested for MHC class I-inducing capability in COLO 205 cells as described above. COLO 205 cells were treated with the compounds at a concentration of 35 μM and evaluated for cell surface MHC class I expression after 48 hours. Cells were harvested, stained with MHC-I mAb W6/32 (Thermo Fisher). MHC-I expression was determined by flow cytometry.

| Compound | Induction Fold [Fold] |
| --- | --- |
| O=C(c1cccc2ccccc12)c1nn(CCCCCF)c2ccccc12 [Example 134, [1-(5-fluoropentyl)-1H-indazol-3-yl]-1-naphthalenyl-methanone] | 2.23 |
| CCCCCOc1ccc(C(=O)c2cccc3ccccc23)c2ccccc12 [Example 152, 1-naphthalenyl[4-(pentoxy)-1-naphthalenyl]-methanone] | 2.12 |

same assay, conditions: Homo sapiens, COLO 205, 48 h, MHC-I expression, COLO 205 cells, compounds at 35 μM, 48 hours, flow cytometry (W6/32); read-out: Induction Fold

| Compound | fold induction at 35 µM |
| --- | --- |
| CCCCCn1cc(C(=O)Oc2cccc3ncccc23)c2ccccc21 [Example 131, quinolin-5-yl 1-pentyl-1H-indole-3-carboxylate] | 2.26 |
| C/C(=C\C(=O)c1cn(CCN2CCOCC2)c2ccccc12)C(C)(C)C [Example 132, (E)-3,4,4-trimethyl-1-(1-(2-morpholinoethyl)-1H-indol-3-yl)pent-2-en-1-one] | 2.25 |
| CCC(F)CCn1cc(C(=O)C2C(C)(C)C2(C)C)c2ccccc21 (stereo not drawn) [Example 133, [1-(3-fluoropentyl)-1H-indol-3-yl] (2,2,3,3-tetramethylcyclopropyl)-methanone] | 2.23 |
| O=C(Oc1cnc2ccccc2c1)c1cn(CCCCCF)c2ccccc12 [Example 136, quinolin-3-yl 1-(5-fluoropentyl)-1H-indole-3-carboxylate] | 2.22 |
| CC1(C)C(C(=O)c2cn(CCCCCCl)c3ccccc23)C1(C)C [Example 138, (1-(5-chloropentyl)-1H-indol-3-yl)(2,2,3,3-tetramethylcyclopropyl)methanone] | 2.21 |
| O=C(c1ccc2ccccc2c1)c1cn(CCCCCF)c2ccccc12 [Example 139, (1-(5-fluoropentyl)-1H-indol-3-yl)(naphthalen-2-yl)methanone] | 2.19 |
| CCCCCn1cc(C(=O)Nc2cccc3cccnc23)c2ccccc21 [Example 141, 1-pentyl-N-8-quinolinyl-1H-indole-3-carboxamide] | 2.19 |
| O=C(c1cccc2ccccc12)c1nn(CCCCCCl)c2ccccc12 [Example 142, (1-(5-chloropentyl)-1H-indazol-3-yl)(naphthalen-1-yl)methanone] | 2.19 |
| CC(C)[C@H](NC(=O)c1nn(Cc2ccccc2F)c2ccccc12)C(N)=O [Example 143, N-[(1S)-1-(aminocarbonyl)-2-methylpropyl]-1-[(2-fluorophenyl)methyl]-1H-indazole-3-carboxamide] | 2.19 |
| O=C(NC12CC3CC(CC(C3)C1)C2)c1cn(CCCCCF)c2ccccc12 [Example 144, 1-(5-fluoropentyl)-N-tricyclo[3.3.1.13,7] dec-1-yl-1H-indole-3-carboxamide] | 2.17 |
| Cc1ccc(C(=O)c2cn(CCCC(C)F)c3ccccc23)c2ccccc12 (stereo not drawn) [Example 145, (1-(4-fluoropentyl)-1H-indol-3-yl)(4-methylnaphthalen-1-yl)methanone] | 2.16 |
| CCCCCn1cc(C(=O)c2cccc3ccc(Cl)cc23)c2ccccc21 [Example 146, (7-chloronaphthalen-1-yl)(1-pentyl-1H-indol-3-yl)methanone] | 2.16 |
| CC1(C)C(C(=O)c2cn(CCN3CCOCC3)c3ccccc23)C1(C)C [Example 147, [1-[2-(4-morpholinyl)ethyl]-1H-indol-3-yl](2,2,3,3-tetramethylcyclopropyl)-methanone] | 2.14 |
| C=CCCCn1cc(C(=O)C2C(C)(C)C2(C)C)c2ccccc21 [Example 148, (1-(pent-4-en-1-yl)-1H-indol-3-yl)(2,2,3,3-tetramethylcyclopropyl)methanone] | 2.14 |
| CCCCCn1cc(C(=O)c2ccc(F)c3ccccc23)c2ccccc21 [Example 150, (4-fluoro-1-naphthalenyl)(1-pentyl-1H-indol-3-yl)-methanone] | 2.14 |
| CCCC(F)Cn1cc(C(=O)C2C(C)(C)C2(C)C)c2ccccc21 (stereo not drawn) [Example 153, [1-(2-fluoropentyl)-1H-indol-3-yl] (2,2,3,3-tetramethylcyclopropyl)-methanone] | 2.11 |
| Cc1ccc(C(=O)c2cn(CCCCCF)c3ccccc23)c2ccccc12 [Example 155, [1-(5-fluoropentyl)-1H-indol-3-yl](4-methyl-1-naphthalenyl)-methanone] | 2.08 |
| O=C(c1cccc2ccccc12)c1cn(CCCC2CO2)c2ccccc12 (stereo not drawn) [Example 156, naphthalen-1-yl(1-(3-(oxiran-2-yl)propyl)-1H-indol-3-yl)methanone] | 2.07 |
| CCCC(Cl)Cn1cc(C(=O)C2C(C)(C)C2(C)C)c2ccccc21 (stereo not drawn) [Example 157, (1-(2-chloropentyl)-1H-indol-3-yl)(2,2,3,3-tetramethylcyclopropyl)methanone] | 2.07 |
| O=C(Oc1cccc2ncccc12)c1cn(CCCCCF)c2ccccc12 [Example 158, quinolin-5-yl 1-(5-fluoropentyl)-1H-indole-3-carboxylate] | 2.07 |
| CCCCCCC(C)(C)c1cc(O)cc(OCCCCCCCC(=O)NC2CC2)c1 [Example 159, N-cyclopropyl-8-[3-(1,1-dimethylheptyl)-5-hydroxyphenoxy]-octanamide] | 2.06 |

| Compound | fold induction at 35 µM |
| --- | --- |
| O=C(c1cn(CCCCCF)c2ccccc12)C12CC3CC(CC(C3)C1)C2 [Example 160, [1-(5-fluoropentyl)-1H-indol-3-yl]tricyclo[3.3.1.13,7]dec-1-yl-methanone] | 2.06 |
| CCCCCn1cc(C(=O)c2cccc3ccc(C)cc23)c2ccccc21 [Example 161, (7-methyl-1-naphthalenyl)(1-pentyl-1H-indol-3-yl)-methanone] | 2.06 |
| O=C(Oc1cccc2cnccc12)c1cn(CC2CCCCC2)c2ccccc12 [Example 162, isoquinolin-5-yl 1-(cyclohexylmethyl)-1H-indole-3-carboxylate] | 2.04 |
| CCCCCn1cc(C(=O)c2cccc3ccc(OC)cc23)c2ccccc21 [Example 163, (7-methoxy-1-naphthalenyl)(1-pentyl-1H-indol-3-yl)-methanone] | 2.04 |
| CCCCCn1cc(C(=O)c2ccc(CCC)c3ccccc23)c2ccccc21 [Example 164, (1-pentyl-1H-indol-3-yl)(4-propyl-1-naphthalenyl)-methanone] | 2.03 |
| CCCCCn1cc(C(=O)Cc2cccc(C)c2)c2ccccc21 [Example 165, 1-(1-pentyl-1H-indol-3-yl)-2-(m-tolyl)ethanone] | 2.02 |
| O=C(Nc1cccc2cccnc12)c1nn(CCCCCF)c2ccccc12 [Example 166, 1-(5-fluoropentyl)-N-(quinolin-8-yl)-1H-indazole-3-carboxamide] | 2.01 |
| O=C(Oc1cccc2ccccc12)c1nn(CCCCCF)c2ccccc12 [Example 167, naphthalen-1-yl 1-(5-fluoropentyl)-1H-indazole-3-carboxylate] | 2.01 |
| CC(C)(C)Cn1cc(C(=O)c2ccc3ccccc3c2)c2ccccc21 [Example 168, [1-(2,2-dimethylpropyl)-1H-indol-3-yl]-2-naphthalenyl-methanone] | 2.01 |
| CC(C)[C@H](NC(=O)c1nn(CCCCCCl)c2ccccc12)C(N)=O [Example 170, N-[(1S)-1-(aminocarbonyl)-2-methylpropyl]-1-(5-chloropentyl)-1H-indazole-3-carboxamide] | 2.01 |
| CCCCCn1nc(C(=O)Oc2cccc3ccccc23)c2ccccc21 [Example 171, naphthalen-1-yl 1-pentyl-1H-indazole-3-carboxylate] | 1.99 |
| CC(C)[C@H](NC(=O)c1nn(Cc2ccc(F)cc2)c2ccccc12)C(N)=O [Example 172, N-[(1S)-1-(aminocarbonyl)-2-methylpropyl]-1-[(4-fluorophenyl)methyl]-1H-indazole-3-carboxamide] | 1.99 |
| CCC(F)CCCn1cc(C(=O)c2cccc3ccccc23)c2ccccc21 (stereo not drawn) [Example 173, (1-(4-fluorohexyl)-1H-indol-3-yl)(naphthalen-1-yl)methanone] | 1.98 |
| CCC(F)CCn1cc(C(=O)c2ccc(C)c3ccccc23)c2ccccc21 (stereo not drawn) [Example 174, (1-(3-fluoropentyl)-1H-indol-3-yl)(4-methylnaphthalen-1-yl)methanone] | 1.96 |
| CCCCCn1cc(C(=O)c2cccc3ccccc23)c2ccc(OC)cc21 [Example 175, (6-methoxy-1-pentyl-1H-indol-3-yl)(naphthalen-1-yl)-methanone] | 1.95 |
| CCCC(F)CCn1cc(C(=O)c2cccc3ccccc23)c2ccccc21 (stereo not drawn) [Example 176, (1-(3-fluorohexyl)-1H-indol-3-yl)(naphthalen-1-yl)methanone] | 1.95 |
| O=C(c1cccc2ccccc12)c1cn(CCCCCCl)c2ccccc12 [Example 177, (1-(5-chloropentyl)-1H-indol-3-yl)(naphthalen-1-yl)methanone] | 1.94 |
| CCCCCn1cccc1C(=O)c1cccc2ccccc12 [Example 178, naphthalen-1-yl(1-pentyl-1H-pyrrol-2-yl)methanone] | 1.94 |
| CCCCCn1cc(C(=O)c2ccc(CC)c3ccccc23)c2ccccc21 [Example 180, (4-ethyl-1-naphthalenyl)(1-pentyl-1H-indol-3-yl)-methanone] | 1.93 |
| CCCCCn1cc(C(=O)Cc2ccc(C)cc2)c2ccccc21 [Example 181, 2-(4-methylphenyl)-1-(1-pentyl-1H-indol-3-yl)-ethanone] | 1.93 |

same assay, conditions: MHC-I expression, COLO 205 cells, compounds at 35 μM, 48 hours, flow cytometry (W6/32)

| Compound | Induction Fold [Fold] |
| --- | --- |
| CCCCCn1nc(C(=O)c2cccc3ccccc23)c2ccccc21 [Example 149, 1-naphthalenyl(1-pentyl-1H-indazol-3-yl)-methanone] | 2.14 |
| COC(=O)[C@H](NC(=O)c1nn(CCCCCF)c2ccccc12)C(C)(C)C [Example 179, N-[[1-(5-fluoropentyl)-1H-indazol-3-yl]carbonyl]-3-methyl-D-valine, methyl ester] | 1.94 |
